The target of assay [1] is Trypanothione reductase (Trypanosoma brucei brucei, UniProt P39051). Kind of assay: Inhibition of Trypanosoma brucei Trypanothione reductase.
Assay [2] deals with Trypanothione reductase (Trypanosoma cruzi, UniProt P28593). Kind of assay: Inhibition of Trypanosoma cruzi Trypanothione reductase.
Trypanothione reductase (Trypanosoma cruzi, UniProt P28593), sequence (P28593 whole entry): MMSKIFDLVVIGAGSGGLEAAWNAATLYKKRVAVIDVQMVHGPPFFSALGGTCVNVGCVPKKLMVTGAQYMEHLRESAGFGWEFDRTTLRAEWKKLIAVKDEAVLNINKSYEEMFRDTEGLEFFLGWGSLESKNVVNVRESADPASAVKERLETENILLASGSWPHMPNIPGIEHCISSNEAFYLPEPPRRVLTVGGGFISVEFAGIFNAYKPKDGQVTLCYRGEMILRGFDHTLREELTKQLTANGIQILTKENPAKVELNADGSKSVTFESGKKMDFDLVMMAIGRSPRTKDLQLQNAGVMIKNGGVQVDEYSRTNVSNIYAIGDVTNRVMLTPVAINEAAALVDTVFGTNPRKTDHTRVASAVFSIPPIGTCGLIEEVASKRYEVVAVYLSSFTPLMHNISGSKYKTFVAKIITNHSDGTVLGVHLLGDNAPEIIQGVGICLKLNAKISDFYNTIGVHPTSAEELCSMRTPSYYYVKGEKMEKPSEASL

Trypanothione reductase (Trypanosoma brucei brucei, UniProt P39051), sequence (P39051 whole entry): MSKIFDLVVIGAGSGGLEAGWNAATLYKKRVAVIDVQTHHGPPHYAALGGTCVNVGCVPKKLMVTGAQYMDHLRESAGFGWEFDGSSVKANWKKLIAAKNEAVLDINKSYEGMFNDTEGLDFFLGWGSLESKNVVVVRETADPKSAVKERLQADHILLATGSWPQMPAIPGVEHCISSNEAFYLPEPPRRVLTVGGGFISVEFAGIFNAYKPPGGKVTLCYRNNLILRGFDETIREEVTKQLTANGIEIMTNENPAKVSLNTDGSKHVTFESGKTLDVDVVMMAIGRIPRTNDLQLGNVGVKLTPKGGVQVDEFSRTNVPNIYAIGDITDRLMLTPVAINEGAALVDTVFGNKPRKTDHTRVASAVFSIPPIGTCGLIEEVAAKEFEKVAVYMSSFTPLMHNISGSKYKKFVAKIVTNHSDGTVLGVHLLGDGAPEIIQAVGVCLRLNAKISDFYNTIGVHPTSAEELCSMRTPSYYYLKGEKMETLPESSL

The IC50 is the concentration needed to halve the response being measured. Read a high IC50 as weaker potency. Regarding `NCCCCC(N)C(=O)Nc1ccc2ccccc2c1` (configuration not stated), the IC50 against Trypanothione reductase [1] and at Trypanothione reductase [2] was greater than 100 µM each time.
In the case of `CC12CN3CC(C)(C1)C[N+](Cc1cccc(Br)c1)(C3)C2`, the IC50 on Trypanothione reductase [1] and against Trypanothione reductase [2] was greater than 100 µM in each case.
On to `O=C(CN1C(=O)C2CC=CCC2C1=O)Nc1ccccc1Sc1ccc(Cl)cc1` (configuration not stated), for which the IC50 on Trypanothione reductase [1] and at Trypanothione reductase [2] was greater than 100 µM each time.
As for `Cc1ccc(N2CC(C(=O)Nc3ccccc3Sc3ccccc3)CC2=O)cc1` (configuration not stated), the IC50 against Trypanothione reductase [1] and at Trypanothione reductase [2] was greater than 100 µM each time.
Take `C[N+]1(C)CCCC2c3ccccc3Sc3ccc(Cl)cc3C21` (configuration not stated): the figures for the IC50 on Trypanothione reductase [1] and against Trypanothione reductase [2] were 58.7 µM and 75.3 µM, respectively.
Taken in the same sequence, the figures for `C[N+]1(Cc2ccccc2)CCC(/N=C/C2C(=O)NC(=O)N(C3CCCCC3)C2=O)CC1` (configuration not stated) were greater than 100 µM and 45.2 µM.
The matching figures for `O=C(CN1C(=O)NC2(CCCCCC2)C1=O)Nc1ccccc1Sc1ccccc1`: greater than 100 µM and greater than 100 µM.
On Trypanothione reductase [1], `CC1CCCCC12NC(=O)N(CC(=O)Nc1ccccc1Sc1ccccc1)C2=O` (configuration not stated) gave an IC50 greater than 100 µM.
Consider `CC(NS(=O)(=O)c1ccccc1)C(=O)Nc1ccccc1Sc1ccccc1` (configuration not stated), for which the IC50 at Trypanothione reductase [1] and on Trypanothione reductase [2] was greater than 100 µM throughout.
For `CN(CC(=O)Nc1ccccc1Sc1ccccc1)C1CCCCC1`, the IC50 was 46.9 µM against Trypanothione reductase [1] and 56.3 µM against Trypanothione reductase [2].
The matching figures for `CCN1CCN(C2Cc3ccccc3Sc3ccc(Cl)cc32)CC1` (configuration not stated): 36 µM and 29.1 µM.
The matching figures for `O=C(CCN1CCN2CCCCC2C1)N1c2ccccc2Sc2ccc(Cl)cc21` (configuration not stated): 31.9 µM and 35.4 µM.
Taken in the same sequence, the figures for `O=C(CN1CCN(c2ccccc2)CC1)Nc1ccccc1Sc1ccccc1` were greater than 100 µM and greater than 100 µM.
Consider `CN1CCN(C2=NC(=O)CC(C(=O)Nc3cccc(Cl)c3)N2)CC1` (configuration not stated), for which the IC50 against Trypanothione reductase [1] and against Trypanothione reductase [2] was greater than 100 µM each time.
On to `CN(C)CCCC1Sc2ccccc2Sc2ccccc21` (configuration not stated), for which the IC50 worked out at 37.3 µM against Trypanothione reductase [1] and 36.7 µM on Trypanothione reductase [2].
For the molecule `CN1CCCC(CC2Oc3ccccc3Sc3ccccc32)C1` (configuration not stated), the figures for the concentration for half-maximal inhibition (IC50) against Trypanothione reductase [1] and on Trypanothione reductase [2] were 14.6 µM and 11.5 µM, respectively.
`NC(=O)C1(N2CCCCC2)CCN(CC(=O)Nc2ccccc2Sc2ccccc2)CC1`: the IC50 against Trypanothione reductase [1] and at Trypanothione reductase [2] was greater than 100 µM in each case.
With `O=C(CN1CCCCCC1)N1c2ccccc2Sc2ccc(Cl)cc21`, the IC50 at Trypanothione reductase [1] is greater than 100 µM; at Trypanothione reductase [2], 78.7 µM.
As for `c1ccc2c(c1)Sc1ccccc1N2CC1CN2CCC1CC2` (configuration not stated) [MEQUITAZINE], the values for the IC50 on Trypanothione reductase [1] and on Trypanothione reductase [2] were 54.3 µM and 21.8 µM, respectively.

The record behind these values is ChEMBL document CHEMBL1153395, “Development of a novel virtual screening cascade protocol to identify potential trypanothione reductase inhibitors” (J Med Chem, 2009).
